This note sets out measurements from patent publication US10035790B2, “RORγ modulators” (BRISTOL-MYERS SQUIBB COMPANY, priority 2012, dated 2018).

Each structure is given as a SMILES string.

In one assay the target is T1, ligand binding domain of human RORγ (A262-S507) (Homo sapiens, UniProt P51449).
T1 construct: made in house; host or cells: E. coli
T1 sequence (P51449 262-507): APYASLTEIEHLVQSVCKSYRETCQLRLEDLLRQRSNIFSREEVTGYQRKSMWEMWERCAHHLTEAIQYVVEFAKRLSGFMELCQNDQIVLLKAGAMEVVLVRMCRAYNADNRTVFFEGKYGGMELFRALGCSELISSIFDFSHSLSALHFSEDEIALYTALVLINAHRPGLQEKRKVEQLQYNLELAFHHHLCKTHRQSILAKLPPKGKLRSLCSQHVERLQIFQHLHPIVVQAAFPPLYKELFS
Briefly: General RORγ SPA binding assay (competition with [3H]25-hydroxycholesterol). Particulars: IC50, RORγ SPA binding assay, inhibition of [3H]25-hydroxycholesterol binding. The essentials: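 Scintillation counts from copper His-tag SPA beads (4 mg/mL, 30 min) gave percent inhibition of radioligand binding, from which IC50 values are derived. The E. coli-expressed His-tagged domain (50 nM) is first exposed to compound for 15 min at room temperature in PBS containing 0.5% fatty acid free BSA.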
`CC(O)(COc1ccnc(C(F)(F)F)n1)c1cnc(N)nc1C1CCN(C(=O)Oc2ccccc2F)CC1` (stereo not shown) [Compound D49, 2-Fluorophenyl 4-[2-amino-5-(1-hydroxy-1-methyl-2-{[2-(trifluoromethyl)pyrimidin-4-yl]oxy}ethyl)pyrimidin-4-yl]piperidine-1-carboxylate] yielded an IC50 of 7.2 nM. `CC(O)(COc1cccc(C(F)(F)F)n1)c1cnc(N)nc1C1CCN(C(=O)Oc2c(F)cccc2F)CC1` (stereo not shown) [Compound D48, 2,6-Difluorophenyl 4-[2-amino-5-(1-hydroxy-1-methyl-2-{[6-(trifluoromethyl)pyridin-2-yl]oxy}ethyl)pyrimidin-4-yl]piperidine-1-carboxylate] had an IC50 of 30.3 nM.

Still in this assay, the particulars now being: RORγ SPA binding assay, inhibition of [3H]25-hydroxycholesterol binding; read-out: IC50.
Take `C/C(=N\Oc1cc(Cl)nc(C(F)(F)F)c1)c1cnc(N)nc1C1CCN(C(=O)Nc2c(F)cccc2F)CC1` [Compound B55, 4-{2-Amino-5-[(1E)-N-{[2-chloro-6-(trifluoromethyl)pyridin-4-yl]oxy}ethanimidoyl]pyrimidin-4-yl}-N-(2,6-difluorophenyl)piperidine-1-carboxamide]: the IC50 came out at 5.8 nM. Same read-out and setting: to `Cc1nc(C)c(-c2nnc(-c3ccnc(C(F)(F)F)n3)o2)c(C2CCN(C(=S)Nc3c(F)cccc3F)CC2)n1` [Compound C46, N-(2,6-Difluorophenyl)-4-(2,6-dimethyl-5-{5-[2-(trifluoromethyl)pyrimidin-4-yl]-1,3,4-oxadiazol-2-yl}pyrimidin-4-yl)piperidine-1-carbothioamide] belongs 123 nM; to `Cc1ncc(C(=O)NCc2ccnc(C#N)c2)c(C2CCN(C(=O)Cc3c(F)cccc3F)CC2)n1` [Compound A55, N-((2-cyanopyridin-4-yl)methyl)-4-(1-(2-(2,6-difluorophenyl)acetyl)piperidin-4-yl)-2-methylpyrimidine-5-carboxamide], 19.2 nM. Regarding `CCNc1ncc(/C(C)=N/Oc2ccnc(C(F)(F)F)c2)c(C2CCN(C(=O)Nc3c(F)cccc3F)CC2)n1` [Compound B60, N-(2,6-Difluorophenyl)-4-{2-(ethylamino)-5-[(1E)-N-{[2-(trifluoromethyl)pyridin-4-yl]oxy}ethanimidoyl]pyrimidin-4-yl}piperidine-1-carboxamide], the IC50 is 115 nM. Same read-out and setting: to `Cc1cc(C)cc(CNC(=O)c2cnc(C)nc2C2CCN(C(=O)Cc3ccccc3C)CC2)c1` [Compound A11, N-(3,5-dimethylbenzyl)-2-methyl-4-(1-(2-(o-tolyl)acetyl)piperidin-4-yl)pyrimidine-5-carboxamide] belongs 49 nM; to `Nc1ncc(C(N)COc2cccc(C(F)(F)F)n2)c(C2CCN(C(=O)Nc3c(F)cccc3F)CC2)n1` (stereo not shown) [Compound N24, 4-[2-Amino-5-(1-amino-2-{[6-(trifluoromethyl)pyridin-2-yl]oxy}ethyl)pyrimidin-4-yl]-N-(2,6-difluorophenyl)piperidine-1-carboxamide], 9.3 nM. Same read-out and setting: to `C/C(=N\Oc1ccnc(C(F)(F)F)n1)c1cnc(C)nc1C1CCN(C(=O)Nc2c(F)cccc2F)CC1` [Compound B36, N-(2,6-Difluorophenyl)-4-{2-methyl-5-[(1E)-N-{[2-(trifluoromethyl)pyrimidin-4-yl]oxy}ethanimidoyl]pyrimidin-4-yl}piperidine-1-carboxamide] belongs 158 nM. The same measure, in the same setting: to `Cc1nc(N)nc(C2CCN(C(=O)Nc3c(F)cccc3F)CC2)c1-c1nnc(-c2ccnc(C(F)(F)F)n2)o1` [Compound C48, 4-(2-Amino-6-methyl-5-{5-[2-(trifluoromethyl)pyrimidin-4-yl]-1,3,4-oxadiazol-2-yl}pyrimidin-4-yl)-N-(2,6-difluorophenyl)piperidine-1-carboxamide] belongs 63.9 nM; to `Cc1nc(C)c(C=NOc2cccc(C(F)(F)F)c2)c(C2CCN(C(=O)Cc3c(F)cccc3F)CC2)n1` [Compound B31, 4-{1-[(2,6-Difluorophenyl)acetyl]piperidin-4-yl}-2,6-dimethylpyrimidine-5-carbaldehyde O-[3-(trifluoromethyl)phenyl]oxime], 3.4 nM. On to `Cc1nc(NCc2ccnc(C(F)(F)F)c2)c(C(=O)NCc2ccnc(C(F)(F)F)c2)c(C2CCN(C(=O)Cc3c(F)cccc3F)CC2)n1` [Compound I2, 4-{1-[(2,6-Difluorophenyl)acetyl]piperidin-4-yl}-2-methyl-N-{[2-(trifluoromethyl)pyridin-4-yl]methyl}-6-({[2-(trifluoromethyl)pyridin-4-yl]methyl}amino)pyrimidine-5-carboxamide], for which the IC50 was 71 nM. Still for that read-out and setting: to `Cc1ncc(C(C)(CO)CNc2ccnc(C(F)(F)F)n2)c(C2CCN(C(=O)Cc3c(F)cccc3F)CC2)n1` (stereo not shown) [Compound F5, 2-(2,6-Difluorophenyl)-1-(4-(5-(1-hydroxy-2-methyl-3-(2-(trifluoromethyl)pyrimidin-4-ylamino)propan-2-yl)-2-methylpyrimidin-4-yl)piperidin-1-yl)ethanone] belongs 101 nM.

As for `Cc1ncc(C(=O)NCc2cc(F)cc(Cl)c2)c(C2CCN(C(=O)Cc3c(F)cccc3F)CC2)n1` [Compound A41, N-(3-chloro-5-fluorobenzyl)-4-(1-(2-(2,6-difluorophenyl)acetyl)piperidin-4-yl)-2-methylpyrimidine-5-carboxamide], the IC50 turned out to be 4.8 nM. Still for that read-out and setting: to `Cc1nc(N)nc(C2CCN(C(=O)Nc3c(F)cccc3F)CC2)c1C(=O)COc1cccc(C(F)(F)F)n1` [Compound M11, 4-[2-Amino-6-methyl-5-({[6-(trifluoromethyl)pyridin-2-yl]oxy}acetyl)pyrimidin-4-yl]-N-(2,6-difluorophenyl)piperidine-1-carboxamide] belongs 2.8 nM; to `Cc1cc(C)cc(CNC(=O)c2cnc(C)nc2C2CCN(C(=O)Cc3ccccc3)CC2)c1` [Compound A25, N-(3,5-dimethylbenzyl)-2-methyl-4-(1-(2-phenylacetyl)piperidin-4-yl) pyrimidine-5-carboxamide], 267 nM; to `CC(=O)N1CCN(CC(O)(COc2cccc(C(F)(F)F)n2)c2cnc(C)nc2C2CCN(C(=O)Nc3c(F)cccc3F)CC2)CC1` (stereo not shown) [Compound N39, 4-{5-[2-(4-Acetylpiperazin-1-yl)-1-hydroxy-1-({[6-(trifluoromethyl)pyridin-2-yl]oxy}methyl)ethyl]-2-methylpyrimidin-4-yl}-N-(2,6-difluorophenyl)piperidine-1-carboxamide], 84.1 nM.

Consider `C/C(=N\Oc1cccc(C(F)(F)F)c1)c1cnc(C)nc1C1CCN(C(=O)Nc2c(F)cccc2F)C(C)C1` (stereo not shown) [Compound B47, N-(2,6-Difluorophenyl)-2-methyl-4-{2-methyl-5-[(1E)-N-{[3-(trifluoromethyl)phenyl]oxy}ethanimidoyl]pyrimidin-4-yl}piperidine-1-carboxamide], for which the IC50 was found to be 76.4 nM. On the same count and under the same terms, to `Cc1cc(C)cc(CNC(=O)c2c(C3CCN(C(=O)Cc4c(F)cccc4F)CC3)nc(C)nc2C(F)(F)F)c1` [Compound A112, 4-(1-(2-(2,6-Difluorophenyl)acetyl)piperidin-4-yl)-N-(3,5-dimethylbenzyl)-2-methyl-6-(trifluoromethyl)pyrimidine-5-carboxamide] belongs 33.6 nM. The same measure, in the same setting: to `Cc1cc(C)cc(CNC(=O)c2cnc(C)nc2C2CCN(C(=O)C(F)(F)c3ccccc3F)CC2)c1` [Compound A118, 4-{1-[Difluoro(2-fluorophenyl)acetyl]piperidin-4-yl}-N-[(3,5-dimethylphenyl)methyl]-2-methylpyrimidine-5-carboxamide] belongs 51.6 nM; to `C/C(=N\Oc1ccnc(Cl)c1)c1cnc(C)nc1C1CCN(C(=O)Cc2c(F)cccc2F)CC1` [Compound B15, (E)-1-(4-(5-(1-(((2-chloropyridin-4-yl)oxy)imino)ethyl)-2-methylpyrimidin-4-yl)piperidin-1-yl)-2-(2,6-difluorophenyl)ethanone], 5.1 nM; to `Cc1nc(C)c(C(=O)COc2ccnc(C(F)(F)F)n2)c(C2CCN(C(=O)Nc3c(F)cccc3F)CC2)n1` [Compound M8, N-(2,6-Difluorophenyl)-4-[2,6-dimethyl-5-({[2-(trifluoromethyl)pyrimidin-4-yl]oxy}acetyl)pyrimidin-4-yl]piperidine-1-carboxamide], 1.7 nM. The same measure, in the same setting: to `CCNC(=O)NCC(O)(COc1cccc(C(F)(F)F)n1)c1cnc(C)nc1C1CCN(C(=O)Nc2c(F)cccc2F)CC1` (stereo not shown) [Compound N36, N-(2,6-Difluorophenyl)-4-{5-[2-{[(ethylamino)carbonyl]amino}-1-hydroxy-1-({[6-(trifluoromethyl)pyridin-2-yl]oxy}methyl)ethyl]-2-methylpyrimidin-4-yl}piperidine-1-carboxamide] belongs 47.8 nM; to `NCCNc1ncc(C(=O)NCc2cccc(Cl)c2)c(C2CCN(C(=O)Cc3c(F)cccc3F)CC2)n1` [Compound A96, 2-((2-aminoethyl)amino)-N-(3-chlorobenzyl)-4-(1-(2-(2,6-difluorophenyl)acetyl)piperidin-4-yl)pyrimidine-5-carboxamide], 202 nM. For the compound `Cc1nc(C)c(-c2nc(-c3cccc(C(F)(F)F)c3)no2)c(C2CCN(C(=O)c3c(F)cccc3F)CC2)n1` [Compound C65, 4-{1-[(2,6-Difluorophenyl)carbonyl]piperidin-4-yl}-2,6-dimethyl-5-{3-[3-(trifluoromethyl)phenyl]-1,2,4-oxadiazol-5-yl}pyrimidine], the IC50 is 2730 nM.

By IC50 is commonly meant the point on the concentration scale where inhibition reaches its midpoint.
